This note sets out measurements from US9393222B2, “Use of HDAC and/or DNMT inhibitors for treatment of ischemic injury” (The Trustees of the University of Pennsylvania, priority 2004, dated 2016).

Assay [1] concerns myocardial ischemia-reperfusion injury. Description: Mouse myocardial ischemia-reperfusion (45 min LAD coronary artery occlusion, 24 h reperfusion), infarct size/area at risk. In kind it is in vivo, mice. As to the method: Mice were injected with 5-aza-2′dC or saline, then subjected to ischemia. […] Both visual blanching and ST segment elevation on continuous ECG display confirmed myocardial ischemia. After 45 minutes, the PE-10 tubing was removed, permitting reperfusion. The sternotomy wound was closed in two layers with 4-0 Vicryl (Ethicon, Inc., Sommerville, N.J.) and the mouse extubated. 24 hours later, the mice were sacrificed, and infarcted and at-risk myocardial tissue was quantitated to determine infarct size.
The volume of viable myocardium remaining was determined by incubation of the tissue with 2% triphenyltetrazolium chloride: mice were euthanized by CO2 inhalation, the hearts were removed, and the aorta cannulated with a 21-gauge blunt-ended needle. Hearts were perfused with 3 ml of phosphate buffered saline solution, followed by 3 ml of 1% (2,3,5)-triphenyltetrazolium (TTC) at 37° C. The hearts were frozen at −80° C. for 20 minutes and cut into 1.5-mm slices. Each slice was individually weighed and photographed with incident light on both sides with a Leica DC200 CCD camera and MZ16 stereomicroscope (Leica Microsystems, Inc.) Infarct area was determined by visualizing TTC precipitate-excluded areas using NIH Image J software.
The volume of tissue at risk for ischemic injury (i.e. tissue lacking normal blood flow during the occlusion) was assessed by injection of the mice with FluoSphere 15-micron fluorescent microspheres (Molecular Probes/Invitrogen, Eugene, Oreg.) in the ascending aorta (clamped distally) after re-ligation of the left anterior descending coronary artery. The heart was sectioned, and fluorescence measured by cutting the tissue into 100 μm slices and determining the area of microsphere perfused cardiac tissue (perfused tissue) and the area excluded from microspheres (area at risk).
The volume of necrotic tissue was divided by the volume of tissue at risk for ischemic injury, to obtain the infarct size. Infarct size in the drug-treated groups was compared to the infarct size in the vehicle-treated group to determine the relative reduction in injury reported in the Table.
To ascertain the effect of DNMT inhibition on ischemic injury, mice were injected in the left ventricle with either the DNMT inhibitor 5-aza-2-deoxycytidine (5-aza-2′dC) or saline (negative control), then cardiac ischemia was induced by occlusion of the left anterior descending coronary artery for 45 minutes. The hearts were re-perfused for 24 hours, and the mice were sacrificed.
Mice were administered either the HDAC inhibitor TSA or vehicle (DMSO) alone, in the left ventricle. Ischemia was induced by occlusion of the left anterior descending coronary artery for 45 minutes, and mice were sacrificed following a 24-hour reperfusion period. The volume of infarcted and at-risk myocardial tissue was quantitated as described for Example 1.
To further characterize the effect of HDAC inhibitors and DNMT inhibitors on ischemic injury, a larger study was conducted, in which the HDAC inhibitor was added at several time points. In addition, a different HDAC inhibitor, Scriptaid (BioMol, Plymouth Meeting, Pa.), was tested, together with its corresponding negative control compound, Nullscript (Biomol). Ischemia was induced, and amounts of viable and necrotic tissue measured, as described for Example 1. A total of 217 mice were utilized in this Example, distributed as follows: Saline=38; DMSO=45; Nullscript=11; TSA-T1=31; TSA-T2=25; TSA-T3=15; Scriptaid=25; 5aza2′dC=27. […] In addition, HDAC inhibitors were effective when administered either before ischemia or 1 hour after ischemia.

Assay [2] concerns histone H3 acetylation (acetyl-Lys9 H3). Description: Histone acetylation in ischemic myocardium, acid/urea gel and anti-acetyl H3 Western blot. In kind it is in vivo, mice. The settings on record: pre-treatment (1 hour before ischemia). As to the method:
Cells were lysed in Triton X/deoxycholate buffer (20 millimolar [mM] HEPES, pH 7.2, 1% Triton X-100, 1% sodium deoxycholate, 100 mM sodium chloride, 50 mM sodium fluoride, 5 mM EDTA, 100 μM sodium molybdate, with protease inhibitors), and insoluble material was removed by a 15 minute (min) centrifugation in a microfuge, and the supernatant was subjected to 100,000×g, […] centrifugation. The pellet was extracted with 9 M urea, and the resulting pellet extracted with 0.3 M HCl.
40 centimeter (cm) acetic acid/urea gels were prepared as follows: The separating gel (0.75 millimeter [mm] thick) contained 15% acrylamide/0.2% methylenebisacrylamide, 4 molar (M) urea, and 5% acetic acid. The stacking gel contained 7.5% acrylamide/0.1% methylenebisacrylamide, 8 M urea, and 5% acetic acid. Proteins were solubilized in sample buffer (8 M urea, 5% acetic acid, 5% 2-mercaptoethanol, 25 milligram per milliliter (mg/ml) protamine sulfate, with methyl green) and loaded onto gels that had been pre-electrophoresed to a constant current and scavenged with […] cysteamine (Sigma-Aldrich). […]
To determine the effect of ischemia and HDAC inhibitors on histone acetylation, ischemia was induced in mice, as described in Example 1, and the degree of histone acetylation in myocardium was determined Histone acetylation was reduced in response to ischemia (FIG. 1).
In general terms: A western blot detects proteins with antibodies after separation by electrophoresis.

The mark [3] stands for this setting: time of treatment not given in Table 3.
Where [4] appears, read: T1: treatment 1 hour before ischemia.
The mark [5] stands for this setting: T2: treatment 1 hour after ischemia.
Where [6] appears, read: T3: treatment 12 hours after ischemia.

Molecules are shown by their SMILES.

Consider `Nc1ncn([C@H]2C[C@H](O)[C@@H](CO)O2)c(=O)n1` [5-aza-2′dC, 5-aza-2-deoxycytidine], for which the “reduction of infarct size vs saline” value in assay [1] (mice, injected in left ventricle before 45 min LAD occlusion, 24 h reperfusion) was found to be 69.6%. The “Ratio of infarct size/area at risk” value in assay [1] (mice, injected in left ventricle before 45 min LAD occlusion, 24 h reperfusion (Table 1)) amounted to 10.3%. For the same compound, in assay [1] (setting [3]), the “% decrease (w.r.t. DMSO)” value was determined as 71.40% and the “Infarct size/area at risk (±SEM)” value is 10.3% ± 0.03%.

Take `O=C(CCCCCN1C(=O)c2cccc3cccc(c23)C1=O)NO` [Scriptaid]: in assay [1] (setting [4]), the “% decrease (w.r.t. DMSO)” value was found to be 44.20% and the “Infarct size/area at risk (±SEM)” value is given as 21.2% ± 0.33%.

`O=C(CCCN1C(=O)c2cccc3cccc(c23)C1=O)NO` [Nullscript]: in assay [1] (setting [3]), the “Infarct size/area at risk (±SEM)” value is 38.0% ± 0.56%.

As to `CC(/C=C/C(=O)NO)=C\[C@@H](C)C(=O)c1ccc(N(C)C)cc1` [TSA, trichostatin A], in assay [2], the “effect on ischemia-induced reduction in histone acetylation” value is listed as “partially prevented the reduction in histone acetylation”. Besides, the “% decrease (w.r.t. DMSO)” value in assay [1] (setting [4]) came out at 48.30%; in assay [1] (setting [5]), 55.60%; in assay [1] (setting [6]), 8.30%. Besides, the “Infarct size/area at risk (±SEM)” value in assay [1] (setting [4]) is recorded as 18.6% ± 0.04%; in assay [1] (setting [5]), 16.0% ± 0.04%; in assay [1] (setting [6]), 33.0% ± 0.05%. Besides, the “reduction in infarct size vs DMSO vehicle” value in assay [1] (mice, administered in left ventricle, 45 min LAD occlusion, 24 h reperfusion) turned out to be 48.3%. In assay [1] (mice, administered in left ventricle, 45 min LAD occlusion, 24 h reperfusion (Table 2)), the “Ratio of infarct size/area at risk” value was found to be 18.6%.
